Laboratory results published in ChEMBL document CHEMBL4376802, “State of the Art in Respiratory Syncytial Virus Drug Discovery and Development” (J Med Chem, 2019).

Key:
Human orthopneumovirus [1] = test: Antiviral activity against RSV A2 infected in A549 cells incubated for 3 days by cell titer glo-based luminescence assay; type: functional, organism-based; settings: human respiratory syncytial virus, A2, A549, 72 h
[2] = Antiviral activity against RSV B-WST infected in Hep2 cells preincubated for 1 hr followed by RSV infection and measured after 3 days by ELISA method; type: functional, cell-based; settings: human respiratory syncytial virus, HEp-2
Human orthopneumovirus [3] = test: Antiviral activity against RSV A2 infected in Hep2 cells preincubated for 1 hr followed by RSV infection and measured after 3 days by ELISA method; type: functional, organism-based; settings: human respiratory syncytial virus, A2, HEp-2
[4] = tested on: Respiratory syncytial virus; test: Antiviral activity against Respiratory syncytial virus; type: functional, organism-based; settings: human respiratory syncytial virus
Human orthopneumovirus [5] = test: Antiviral activity against RSV A2 infected in HAE-derived cells; type: functional, organism-based; settings: human respiratory syncytial virus
[6] = tested on: Respiratory syncytial virus; test: Antiviral activity against Respiratory syncytial virus by CPE reduction assay; type: functional, organism-based; settings: human respiratory syncytial virus
[7] = tested on: Respiratory syncytial virus; test: Antiviral activity against recombinant RSV infected in HeLa cells assessed as reduction in eGFP expression after 3 days by laser microscopic analysis; type: functional, organism-based; settings: human respiratory syncytial virus, 72 h
[8] = Antiviral activity against RSV B-WST infected in Hep2 cells CPE reduction assay; type: functional, cell-based; settings: human respiratory syncytial virus, HEp-2
Human orthopneumovirus [9] = test: Antiviral activity against RSV A2 infected in Hep2 cells by CPE reduction assay; type: functional, organism-based; settings: human respiratory syncytial virus, A2, HEp-2
[10] = Inhibition of Respiratory syncytial virus RNA-dependent RNA polymerase
[11] = Oral bioavailability in BALB/c mouse; type: ADME, organism-based; settings: in vivo
Human orthopneumovirus [12] = test: Antiviral activity against HRSV expressing m-cherry infected in Hep2 cells after 48 hrs post infection by fluorescence based assay; type: functional, organism-based; settings: human respiratory syncytial virus, HEp-2, 48 h
[13] = Oral bioavailability in dog; type: ADME, organism-based, Canis lupus familiaris; settings: in vivo
[14] = Oral bioavailability in rat; type: ADME, organism-based; settings: in vivo
Influenza A virus = test: Antiviral activity against influenza A virus; type: functional, organism-based
Human orthopneumovirus [15] = test: Antiviral activity against RSV type A; type: functional, organism-based; settings: human respiratory syncytial virus
Hepatitis C virus = test: Antiviral activity against Hepatitis C virus; type: functional, organism-based, Hepacivirus hominis
Human orthopneumovirus [16] = test: Antiviral activity against RSV type B; type: functional, organism-based; settings: human respiratory syncytial virus
Human respirovirus 3 = test: Antiviral activity against Human parainfluenza virus 3; type: functional, organism-based
[17] = Antiviral activity against RSV type A 492 infected in Hep2 cells assessed as reduction in virus-induced cytopathic effect after 5 days by resazurin dye based PCR analysis; type: functional, cell-based; settings: human respiratory syncytial virus, 492, HEp-2, 120 h
Human orthopneumovirus [18] = test: Antiviral activity against RSV A2 infected in Hep2 cells assessed as reduction in virus-induced cytopathic effect after 5 days by resazurin dye based PCR analysis; type: functional, organism-based; settings: human respiratory syncytial virus, A2, HEp-2, 120 h
[19] = Antiviral activity against RSV type A 689 infected in Hep2 cells assessed as reduction in virus-induced cytopathic effect after 5 days by resazurin dye based PCR analysis; type: functional, cell-based; settings: human respiratory syncytial virus, 689, HEp-2, 120 h
[20] = Antiviral activity against RSV type A VAN1160 infected in Hep2 cells assessed as reduction in virus-induced cytopathic effect after 5 days by resazurin dye based PCR analysis; type: functional, cell-based; settings: human respiratory syncytial virus, VAN1160, HEp-2, 120 h
[21] = Antiviral activity against RSV type A 1211 infected in Hep2 cells assessed as reduction in virus-induced cytopathic effect after 5 days by resazurin dye based PCR analysis; type: functional, cell-based; settings: human respiratory syncytial virus, 1211, HEp-2, 120 h
[22] = Antiviral activity against RSV type A Memphis 37 infected in Hep2 cells assessed as reduction in virus-induced cytopathic effect after 5 days by resazurin dye based PCR analysis; type: functional, cell-based; settings: human respiratory syncytial virus, Memphis 37, HEp-2, 120 h
[23] = Antiviral activity against RSV type B 1276 infected in Hep2 cells assessed as reduction in virus-induced cytopathic effect after 5 days by resazurin dye based PCR analysis; type: functional; settings: human respiratory syncytial virus, 1276, HEp-2, 120 h; pooled result: one value given for 5 cell lines, strains, targets or settings
[24] = Antiviral activity against RSV B-WST infected in Hep2 cells assessed as reduction in virus-induced cytopathic effect after 6 days by resazurin dye based PCR analysis; type: functional, cell-based; settings: human respiratory syncytial virus, HEp-2, 144 h
[25] = Plasma clearance in Beagle dog at 2 mg/ml, iv or 1.2 mg/ml, po measured up to 24 hrs by LC-MS/MS analysis; type: ADME, organism-based, Canis lupus familiaris
Human orthopneumovirus [26] = test: Antiviral activity against RSV A infected in HeLa cells; type: functional, organism-based; settings: human respiratory syncytial virus, type A
[27] = Antiviral activity against RSV B infected in HeLa cells; type: functional, cell-based; settings: human respiratory syncytial virus
Human orthopneumovirus [28] = test: Antiviral activity against Respiratory syncytial virus A plaque reduction assay; type: functional, organism-based
[29] = Oral bioavailability in mouse; type: ADME, organism-based; settings: in vivo
[30] = Antiviral activity against Respiratory syncytial virus B plaque reduction assay; type: functional, Human respiratory syncytial virus B

## O=c1n(Cc2nc(-c3nccs3)cn2CCCCO)c2cnccc2n1C1CC1
Human orthopneumovirus [1]
  EC50: 58 nM

## O=C(NC1CC1)c1cc2c(s1)-c1ccccc1N(C(=O)c1ccc(NC(=O)c3cccnc3N3CCC4(CC3)COC4)cc1)CC2
[2]
  EC50: > 50000 nM
Human orthopneumovirus [3]
  EC50: 10 nM

## Cc1ccc(NS(C)(=O)=O)c(C(=O)N2CCCC[C@H]2c2cc3nc4c(c(N5CCOCC5)n3n2)CCCC4)c1
[4]
  EC50: 0.56 nM

## CC1(C(=O)N2CC3(C2)C(=O)N(Cc2nc4c(n2CCCC(F)(F)F)CCCC4)c2ccccc23)CC1
Human orthopneumovirus [1]
  EC50: < 100 nM

## CNc1nc(N)nc2c1ncn2[C@@H]1O[C@](C)(CO[P@@](=O)(N[C@@H](C)C(=O)OC(C)C)Oc2ccccc2)[C@@H](O)[C@H]1F
Human orthopneumovirus [5]
  EC50: 0.052 nM

## CC(C)OC(=O)N1CCC2(CC1)C(=O)N(Cc1nc3cc(Cl)ccc3n1CCCC#N)c1cnccc12
[6]
  EC50: 0.024 nM

## O=c1n(Cc2cc3cnccc3n2CCCC(F)(F)F)c2cnccc2n1CC(F)(F)F
[7]
  EC50: 0.25 nM

## CC(C)CCn1c(Cn2c(=O)n(C3CCN(S(C)(=O)=O)CC3)c3ccccc32)nc(=O)c2ccccc21
[6]
  EC50: 5.8 nM

## CCc1cc(C(=O)N2CCc3sccc3[C@H]2C)nc2cc(-c3ccc(N4CC[C@H](C(=O)O)C4)cc3F)nn12
[4]
  EC50: 2.75 nM

## O=c1n(Cc2cc3cc(Cl)ccc3n2CCCCO)c2cnccc2n1C1CC1
[7]
  EC50: 2 nM

## Cc1cc2n(Cc3nc(OCC4CCOC4)c4cc(C#N)ccc4n3)c(=O)c3ccccc3n2n1 (configuration not stated)
[6]
  EC50: 2.8 nM

## CC(C)CCn1c(CN2C(=O)C3(CC3)c3ccccc32)nc2cc(CN)ccc21
[4]
  EC50: 31 nM

## Cc1cn(Cc2nc3ccccc3s2)c(=O)n(Cc2ccc(-c3csnn3)cc2)c1=O
[8]
  EC50: > 50000 nM
Human orthopneumovirus [9]
  EC50: 1600 nM

## O=C(NC1CC1)c1cc2c(s1)-c1ccccc1N(C(=O)c1ccc(NC(=O)c3ccccc3-c3ccccc3)cc1)CC2
[2]
  EC50: > 20000 nM
Human orthopneumovirus [3]
  EC50: 750 nM

## COC(=O)N1CC2(C1)C(=O)N(Cc1ncc3cc(C)ccc3c1-c1cncnc1)c1ccccc12
[6]
  EC50: 0.2 nM

## COc1cc(C(=O)NC[C@@](O)(c2cc3c(c(-c4ccc(F)cc4)n2)NC[C@@]3(C)N)C(F)(F)F)ccc1OCCO
[4]
  EC50: < 1000 nM
[10]
  IC50: < 1000 nM

## Cc1cccc(-c2ccc([C@@H]3[C@@H](CO)N4CCCCN(S(=O)(=O)c5cn(C)cn5)C[C@@H]34)cc2)c1
[8]
  EC50: > 50000 nM
Human orthopneumovirus [9]
  EC50: 3300 nM

## NC1CCN(c2ncc(CN3C(=O)C4(CC4)c4ccc(F)cc43)c(NCCCO)n2)C1 (configuration not stated)
Human orthopneumovirus [1]
  EC50: 34 nM

## CCc1ccc(NS(C)(=O)=O)c(C(=O)N(C)[C@@H](CC)c2cc3nc(N4CC[C@H](N)C4)c(C)cn3n2)c1
[4]
  EC50: 0.15 nM

## CC(C)OC(=O)N1CC2(C1)C(=O)N(Cc1nc3cc(Br)ccc3n1CCCO)c1ccccc12
[6]
  EC50: 0.8 nM
[11]
  bioavailability: 72%

## c1coc(-c2nn3c(Cn4cnc5ccccc54)nnc3s2)c1
[4]
  EC50: 660 nM

## Cc1cccc2ncnc(N3CCCC[C@H]3c3cc4nc(N5CCC5)cc(N5CCOCC5)n4n3)c12
[4]
  EC50: 10 nM

## O=C1N(Cc2nc3cc(Cl)ccc3n2C2CCS(=O)(=O)C2)c2cnccc2C12CC2 (configuration not stated)
[6]
  EC50: 1.9 nM

## N#Cc1ccc(-c2ccc3c(c2)[C@H]2[C@H](CCN2C(=O)c2ccccc2F)[C@H](CO)N3)cc1
[8]
  EC50: 6800 nM
Human orthopneumovirus [9]
  EC50: 1400 nM

## O=C(O)c1cc(C(=O)O)n(Cc2ccc(Cl)cc2Cl)n1
Human orthopneumovirus [12]
  EC50: 122000 nM

## Cc1ccc([C@]23Cn4cccc4C(=O)N2CCN3C(=O)c2conc2C)cn1
Human orthopneumovirus [5]
  EC50: 8.4 nM
[13]
  bioavailability: 100%
[14]
  bioavailability: 59%

## Nc1ccn([C@@H]2O[C@@](CO)(CCl)[C@@H](O)[C@H]2F)c(=O)n1 [ALS-8112]
Influenza A virus
  EC50: > 100000 nM
Human orthopneumovirus [15]
  EC50: 90 to 450 nM
Hepatitis C virus
  EC50: > 100000 nM
Human orthopneumovirus [16]
  EC50: 90 to 450 nM
Human respirovirus 3
  EC50: 1300 nM

## Cc1cnc(N2CC3(CCOCC3)C2)c(C(=O)Nc2ccc(C(=O)N3CCc4cc(C(=O)Nc5c(C)cccc5F)sc4-c4ccccc43)cc2)c1 [PC-786]
[17]
  EC50: 0.46 nM
Human orthopneumovirus [18]
  EC50: 0.5 nM
[19]
  EC50: 0.46 nM
[20]
  EC50: 0.46 nM
[21]
  EC50: 0.46 nM
[22]
  EC50: 0.46 nM
[23]
  EC50: 20.2 nM
[24]
  EC50: 27.3 nM

## CS(=O)(=O)CCCn1c(Cn2c(=O)n(CC(F)(F)F)c3ccncc32)cc2cc(Cl)ccc21 [RILEMATOVIR]
[25]
  clearance: 9 mL/min/kg
Human orthopneumovirus [26]
  EC50: 0.2 to 20 nM
[27]
  EC50: 0.2 to 20 nM
[7]
  EC50: 0.46 to 0.5 nM

## NCc1ccc2c(c1)nc(CN1C(=O)C3(CC3)c3ccc(F)cc31)n2CCCC(F)(F)F [SISUNATOVIR]
Human orthopneumovirus [28]
  EC50: 0.1 to 1.4 nM
[13]
  bioavailability: 63%
[29]
  bioavailability: 46%
[30]
  EC50: 0.1 to 1.4 nM

## O=C1Nc2ccccc2C(c2ccccc2)=N[C@@H]1Nc1nnc(-c2ncc(C(F)(F)F)cc2N2CCOCC2)o1 [ZELICAPAVIR]
[4]
  EC50: < 400 nM
